Measured values: PubChem BioAssay (NCI)
Values joined by “and” are separate entries in the source; they are usually repeats but may differ in a detail not shown here. Equal values may be shown once.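 Assay format: 96-well plates, 48-hour exposure. GI50 is the concentration that inhibits growth by half. TGI marks complete inhibition of growth.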 Numbered stars: 1 amine (or outer) side, 2 acyl side, 3 side chain; on linkers, the order of the positions; unused ones are H or OH. Bridge positions count the residues as written; N and C are the ends. Square brackets hold non-standard residues; d marks the D form. Peptide text beside a SMILES is read from it. I, II: the chains in the order shown. Actinocin(1to9) = Cc1c2oc3c(C)ccc(C(=O)[*:2])c3nc-2c(C(=O)[*:1])c(N)c1=O; NMeY = CN[CH](Cc1ccc(O)cc1)C(=O)O; Sar = CNCC(=O)O

How the values were obtained:
Test in all cases: growth of human tumour cells (NCI), 48 h
HL-60(TB) leukemia = test system: HL-60(TB) leukemia
SN12C renal = test system: SN12C renal
ACHN renal = test system: ACHN renal
CCRF-CEM leukemia = test system: CCRF-CEM leukemia
OVCAR-3 ovarian = test system: OVCAR-3 ovarian
MALME-3M melanoma = test system: MALME-3M melanoma
786-0 renal = test system: 786-0 renal
MOLT-4 leukemia = test system: MOLT-4 leukemia
DU-145 prostate = test system: DU-145 prostate
PC-3 prostate = test system: PC-3 prostate

Row | Compound | TGI (HL-60(TB) leukemia) [µM] | TGI (SN12C renal) [µM] | TGI (ACHN renal) [µM] | TGI (CCRF-CEM leukemia) | TGI (OVCAR-3 ovarian) [µM] | TGI (MALME-3M melanoma) [µM] | TGI (786-0 renal) [µM] | TGI (MOLT-4 leukemia) [µM] | GI50 (SN12C renal) [µM] | GI50 (DU-145 prostate) [µM] | TGI (DU-145 prostate) [µM] | GI50 (ACHN renal) [µM] | GI50 (OVCAR-3 ovarian) [µM] | GI50 (PC-3 prostate) [µM] | TGI (PC-3 prostate) [µM] | GI50 (MALME-3M melanoma) [µM] | GI50 (786-0 renal) | GI50 (HL-60(TB) leukemia) [µM] | GI50 (CCRF-CEM leukemia) | GI50 (MOLT-4 leukemia) [µM]
1 | COc1cc2cnc3c4cc(OCc5ccccc5)ccc4ccc3c2cc1OC | 9.27 | > 100 | > 100 | 17.3 µM | > 100 | > 100 | 44.5 | 30.9 |  |  |  |  |  |  |  |  |  |  |  | 
2 | CNC(=O)CN(CC(=O)O)C(=O)NC | > 100 |  | > 100 | > 100 µM | > 100 | > 100 | > 100 | > 100 |  |  |  |  |  |  |  |  |  |  |  | 
3 | N#Cc1cc(S(=O)(=O)Nc2nc3ccccc3o2)c(SCc2ccccc2)cc1Cl |  | 57.9 | > 100 |  | 52.3 | 69.9 | 45.2 |  | 24.7 | 21 | 46.7 | 32.6 | 24.2 | 21.4 | 43.4 | 34.5 | 21.8 µM |  |  | 
4 | CCC(CO)Nc1nc2c(c(=O)n(C)c(=O)n2C)n1CCO (stereo not given) |  | > 100 | > 100 |  | > 100 | > 100 | > 100 | > 100 |  |  |  |  |  |  |  |  |  |  |  | 
5 | C=C1C(OC(C)=O)CC(OC(C)=O)C2(C)C(OC(C)=O)C(OC(C)=O)C3=C(C)C(OC(=O)/C=C/c4ccccc4)CC(C(OC(C)=O)C12)C3(C)C (stereo not given) | > 100 | > 100 | > 100 | > 100 µM |  | > 100 | > 100 | > 100 |  |  |  |  |  |  |  |  |  |  |  | 
6 | COc1ccc2c(c1)CCc1c-2n[nH]c1-c1[nH]nc2c1CCc1cc(OC)ccc1-2 | > 100 | > 100 | > 100 | > 100 µM |  | > 100 | 41.1 | > 100 |  |  |  |  |  |  |  |  |  |  |  | 
7 | COc1ccc2c(c1)CN1CCc3c(cc(OC)c(OC)c3OC)C1C2 (stereo not given) | > 100 | > 100 | > 100 | > 100 µM | > 100 | > 100 | > 100 | > 100 |  |  |  |  |  |  |  |  |  |  |  | 
8 | NC(Cc1ccccc1)c1nccs1 (stereo not given) |  | > 100 | > 100 | > 100 µM | > 100 | > 100 | > 100 | > 100 |  |  | > 100 |  |  |  | > 100 |  |  |  |  | 
9 | COc1ccc(OC(C)C(=O)O)c2c(=O)ccccc12 (stereo not given) | > 100 | > 100 | > 100 | > 100 µM | > 100 | > 100 | > 100 | > 100 |  |  |  |  |  |  |  |  |  |  |  | 
10 | COc1cc(/C=N/N=C(\N)NO)c([N+](=O)[O-])cc1OC | 56 | > 100 | 86.5 | > 100 µM | > 100 | > 100 | > 100 | > 100 |  |  |  |  |  |  |  |  |  |  |  | 
11 | O=c1/c(=N\Nc2ccccc2)c2cccc3ccc4cccc1c4c32 |  | > 100 | 88.6 | > 100 µM | > 100 | > 100 | > 100 | > 100 |  |  | > 100 |  |  |  | > 100 |  |  |  |  | 
12 | CC[PH+](CC)CC.[Cl][Au] | 0.278 | 3.55 | 3.32 | 1.33 µM | 3.42 | 2.56 | 2.74 | 2.69 | 1.82 |  |  | 1.61 | 1.89 |  |  | 1.27 | 1.42 µM | < 0.0469 | 0.216 µM | 0.682
13 | CCC[CH2][Sn]1([CH2]CCC)[S]CC[N]1S(=O)(=O)c1ccc(C)cc1 | 2.73 |  | 3.11 |  | 2.93 | 2.33 | 2.53 | 4.04 |  |  |  | 1.67 | 1.59 |  |  | 1.09 | 1.26 µM | 0.581 |  | 1.14
14 | CCCCN(CCCC)CC(C(C)=O)C(c1ccccc1)c1c(O)c2ccccc2oc1=O (stereo not given) | > 100 | > 100 | > 100 | > 100 µM | > 100 | > 100 | > 100 | > 100 |  |  |  |  |  |  |  |  |  |  |  | 
15 | CC(=O)NN1C(=O)C(Cc2ccccc2)c2ccccc21 (stereo not given) |  | > 100 | > 100 | > 100 µM | > 100 | > 100 | > 100 | > 100 |  |  |  |  |  |  |  |  |  |  |  | 
16 | O/N=C/c1ccc(O)c(O)c1 | 58.8 | > 100 | > 100 | > 100 µM | > 100 | > 100 | > 100 | > 100 |  |  |  |  |  |  |  |  |  |  |  | 
17 | CC1SC(c2ccc(Cl)cc2Cl)N(NC(=O)C(O)c2ccccc2)C1=O (stereo not given) |  | > 100 | > 100 | > 100 µM | > 100 | > 100 | > 100 | > 100 | 85.4 | > 100 | > 100 | 48.4 | 28.7 | 42.3 | > 100 | 70.3 | > 100 µM |  | 65.4 µM | 34.5
18 | O=P(O)(O)OCC1OC(n2cnc3c(NCc4ccccc4)ncnc32)C(O)C1O (stereo not given) | > 100 | > 100 | > 69.1 | > 100 µM | 2.16 | > 100 | > 67.6 | > 100 | 0.509 |  |  | 1.4 | 0.691 | 1.2 | > 36.2 | 6.64 | 2.83 µM | 0.346 | 3.76 µM | 0.673
19 | CC1=NOC(=O)/C1=C/c1ccc2c(c1)OCO2 |  | 59.4 | 38.2 | 67.5 µM | 98.9 | > 100 | 46.6 |  |  |  | 68.6 |  |  |  | 48.5 |  |  |  |  | 
20 | COc1ccc(CC2C(=O)OC(C)C(NC(=O)c3c4nc5c(C(=O)NC6C(=O)NC(C(C)C)C(=O)N7CCCC7C(=O)N(C)CC(=O)N(C)C(Cc7ccc(OC)cc7)C(=O)OC6C)ccc(C)c5oc-4c(C)c(=O)c3N)C(=O)NC(C(C)C)C(=O)N3CCCC3C(=O)N(C)CC(=O)N2C)cc1 (stereo not given) (I: TVP[Sar][NMeY](Me) / II: TVP[Sar][NMeY](Me); ester I:1-I:C, II:1-II:C; linker I:N-II:N via Actinocin(1to9); configuration not given here) | 0.0515 | > 1 | > 0.591 | < 0.01 µM and 0.0625 µM |  |  | > 1 |  |  |  |  |  |  |  |  |  | < 0.0333 µM and 0.00694 µM | 0.00154 | < 0.01 µM and 0.00103 µM | 0.00152
